In general, IC50 refers to the concentration that gives 50% inhibition.

The text below walks through data of patent US20130230511A1, “BIOMARKERS FOR RESPONSE TO TYROSINE KINASE PATHWAY INHIBITORS IN CANCER” (BOARD OF REGENTS, THE UNIVERSITY OF TEXAS SYSTEM, priority 2012, published 2013).

One assay deals with H23 cells. The settings on record: which harbor VEGFR (KDR) CNGs.
A further assay deals with HIF-1α. The settings on record: H23 cells (KDR CNG+), ELISA. A general note: ELISA stands for enzyme-linked immunosorbent assay.
In a further assay the test system is NSCLC cell line H23. Put plainly: MTS assay of in vitro resistance to cisplatin and carboplatin, with KDR siRNA knockdown. It counts as cell-based. The following applies: for decrease in IC50 caused by knockdown of KDR: H23 cells, siKDR knockdown versus untransfected, P<0.05; for IC50: MTS assay, 72 h drug exposure. The protocol:
Cisplatin and carboplatin sensitivity was determined by MTS (3-(4,5-dimethylthiazol-2-yl)-5-(3-carboxymethoxyphenyl)-2-(4-sulfophenyl)-2H-tetrazolium, inner salt) assay for each cell line and the concentration required for 50% growth inhibition (IC50) was determined.
NSCLC cells were transfected with siRNA targeting KDR and control siRNA (OriGene Technology, Md., USA) at a final concentration of 10 nM using Lipofectamine RNAiMAX (Invitrogen, CA, USA) according to the manufacturer's instructions. Medium was replaced after 24 h. To verify the knockdown efficiency, mRNA and protein of transfected cells were collected for real-time RT-PCR and Western blot analyses.
The assessment of in vitro resistance to cisplatin and carboplatin was determined by the MTS assay. NSCLC cell lines were seeded in octuplicate at a density of 2,000 per well in 96-well plates. The following day, cells were treated with cisplatin and carboplatin at various concentrations ranging from 0 to 120 μmol/L for cisplatin and 0 to 200 μmol/L for carboplatin. After 72 h of drug exposure, 20 μL of MTS solution was added per well. Cells were incubated for 1-4 hours at 37° C. and read at a wavelength of 490 nm.
To investigate the role of KDR CNG and VEGFR-2 overexpression in resistance to both cisplatin and carboplatin, siRNA was utilized to knockdown KDR expression in H23 and H461 NSCLC cell lines, which contain 6-9 KDR gene copies. […] To evaluate the effect of KDR overexpression on sensitivity to cisplatin and carboplatin, the expression of KDR was inhibited by transfecting H23 and H461 cells with control siRNA or siRNA targeting KDR and then treating the cells with increasing concentrations of the chemotherapy drugs. Cell viability was evaluated by MTS assay.

For assay [1], the system named is HIF-1α-regulated proteins (EZH2, Met, phosphorylated Met). The assay can be described thus: Changes in HIF-1α-regulated proteins in VEGFR amplified cell lines. It counts as cell-based. The settings on record: H23 and Calu1 cells (VEGFR CNGs).
Protocol: Two VEGFR amplified cell lines, H23 and Calu1, were treated with the VEGFR pathway inhibitor bevacizumab and evaluated for changes in proteins regulated by HIF-1α.
In addition, two VEGFR amplified cell lines, H23 and Calu1, were treated with the VEGFR pathway inhibitor bevacizumab and changes in proteins regulated by HIF-1α were evaluated.
Setting [2] is: untransfected (non-transfected) H23 cells.

As to `Cc1ccc(NC(=O)c2ccc(CN3CCN(C)CC3)cc2)cc1Nc1nccc(-c2cccnc2)n1` [imatinib], the cell migration entry in the assay with H23 cells is listed as “does not inhibit cellular migration”. Further, the HIF-1α levels entry in the assay with HIF-1α is listed as “did not affect”.

As to `N.N.O=C([O-])C1(C(=O)[O-])CCC1.[Pt+2]` [carboplatin], the “decrease in IC50 caused by knockdown of KDR” value with NSCLC cell line H23 was determined as 3.5 fold. The concentration for half-maximal inhibition (IC50) in the assay with NSCLC cell line H23 (siKDR knockdown H23 cells) is 27.9 µM; in the assay with NSCLC cell line H23 (setting [2]) it was 97 µM.

For the compound `N.N.[Cl][Pt][Cl]` [cisplatin], the “decrease in IC50 caused by knockdown of KDR” value in the assay on NSCLC cell line H23 worked out at 1.9 fold. Further, the figures for the 50% inhibitory concentration (IC50) in the assay with NSCLC cell line H23 (siKDR knockdown H23 cells) and in the assay on NSCLC cell line H23 (setting [2]) were 53 µM and 97.9 µM, respectively.

With bevacizumab, in assay [1], the EZH2 protein entry is given as “decreased”, the Met protein result is given as “decreased” and the “phosphorylated Met” value was “decreased”.
